Test results published in patent US20240208969A1, “SUBSTITUTED FUSED BICYCLIC COMPOUNDS AS PARP INHIBITORS AND THE USE THEREOF” (IMPACT THERAPEUTICS (SHANGHAI), INC., priority 2021, published 2024).
pIC50: −log10 of the molar value.

What was measured:
[1] = test system: MDA-MB-436 cells; assay: Inhibition of proliferation of human breast cancer MDA-MB-436 cell line (CCK-8, 7 days); type: cell-based; details: Homo sapiens, 168 h, proliferation of MDA-MB-436, 7 days
Procedure: The cells were cultured in complete medium (DMEM medium +10% FBS+Insulin+glutathione). When the confluence reached about 80%, cells were digested and gently dispensed from the bottom of the dish with a 1 mL pipette. Cell suspension was collected and centrifuged at 500 rpm for 3 min. The supernatant was discarded, and the cell pellet were re-suspended in complete medium. The cells were seeded into a culture dish at an appropriate proportion, and then cultured in a 5% CO2 incubator at 37° C. The assay was carried out when the cells were in optimum condition and the confluence was reached 80%. Cells were harvested in the logarithmic growth phase by using 1 mL pipette gently and then centrifugated at 500 rpm for 3 min. The cells were resuspended by using refresh medium after removing the supernatant and then the cells were counted. The cells were seeded at 3000/well in a 96 well plate and incubated at 37° C. 5% CO2 incubator overnight. In the second day, cells were treated with compound at 8 serially diluted dose with 1000×final concentration in 100% DMSO. The compound was prepared as below: 1000×dilution tested compound solution to 40×test compound solution by adding 5μL, 1000×compound solution to 120 μL Medium (25-fold dilution). The solution was mixed by oscillation. DMSO was used as the control.
The medium was removed from the wells in the plate after the plate was taken out from incubator. Then, fresh medium of 195 μL/per well was added to the 96 well plate. 5μL/per well of 40×test compound solution was added into the 96 well plate. Finally, the plate was incubated for 7 days in a 37° C. 5% CO2 incubator. The medium containing compound was changed once on the fourth day. After 7 days, 20 μL of CCK-8 was added to each well and shake gently, then was cultured for 4 hours. The plate was shaken for 5 min after incubation, the absorbance values of 450 nm. and 650nm wavelengths were recorded respectively (OD=absorbance value of 450 nm−absorbance value of 650 nm) by using the multifunction readout instrument.
Data were analyzed by software GraphPad Prism 6.0. The inhibitory activity of compounds on cell proliferation was plotted using cell survival rate against the compound concentration as coordinates. Cell survival rate %=(ODcompound−ODbackground)/(ODDMSO−ODbackground)×100. The IC50 value was fitted by the s-shaped dose response curve equation: Y=100/(1+10^(log C−log IC50)), and C was the compound concentration.
Table 2 summarizes the inhibitory effect data (IC50) of the compounds on the proliferation of human breast cancer cells MDA-MB-436, wherein ++++ indicates 1<IC50≤10 nM; +++ indicates 10 nM<IC50≤100 nM; ++ indicates 100 nM<IC50≤1 μM; + indicates IC50>1 μM.

[2] = target: PARP1 (Homo sapiens, UniProt P09874); assay: PARP1 chemiluminescent assay; type: biochemical; details: recombinant PARP1 enzyme activity, chemiluminescence
Procedure: (§1) Mix the solution of recombinant poly ADP ribotransferase 1 and 2 (PARP1 and PARP2) (40 ng enzyme/well) and the compounds to be tested, respectively. And then added to a 96-well plate coated with […] mixture, incubated at room temperature for 1 h. Then add 50 μL 0.3 ng/mL Streptavidin-HRP to each well. The plates were incubated for 30 minutes at room temperature. Finally, the plates were treated with streptavidin-HRP followed by addition of the ELISA ECL substrate to produce chemiluminescence that can then be measured using a chemiluminescence reader. The inhibition rate of the compound to PARP1/2 enzyme activity was calculated according to the following formula. [formula] IC50 value is obtained by fitting the s-shaped dose response curve equation by using XL Fit software. The curve equation is Y=100/(1+10^(log C−log IC50)), C is the compound concentration. Table 1 summarizes the inhibitory effects of compounds on PARP1 and PARP2 enzyme activity (IC50), wherein +++++ indicates IC50≤1 nM; ++++ indicates 1<IC50≤10 nM; +++ indicates 10 nM<IC50≤100 nM: ++ indicates 100 nM<IC50≤1 μM; + indicates IC50>1 μM.

[3] = target: PARP2 (Homo sapiens, UniProt Q9UGN5); assay: PARP2 chemiluminescent assay; type: biochemical; details: recombinant PARP2 enzyme activity, chemiluminescence
Procedure: as §1

Chain of PARP2 (Q9UGN5 whole entry, species assumed): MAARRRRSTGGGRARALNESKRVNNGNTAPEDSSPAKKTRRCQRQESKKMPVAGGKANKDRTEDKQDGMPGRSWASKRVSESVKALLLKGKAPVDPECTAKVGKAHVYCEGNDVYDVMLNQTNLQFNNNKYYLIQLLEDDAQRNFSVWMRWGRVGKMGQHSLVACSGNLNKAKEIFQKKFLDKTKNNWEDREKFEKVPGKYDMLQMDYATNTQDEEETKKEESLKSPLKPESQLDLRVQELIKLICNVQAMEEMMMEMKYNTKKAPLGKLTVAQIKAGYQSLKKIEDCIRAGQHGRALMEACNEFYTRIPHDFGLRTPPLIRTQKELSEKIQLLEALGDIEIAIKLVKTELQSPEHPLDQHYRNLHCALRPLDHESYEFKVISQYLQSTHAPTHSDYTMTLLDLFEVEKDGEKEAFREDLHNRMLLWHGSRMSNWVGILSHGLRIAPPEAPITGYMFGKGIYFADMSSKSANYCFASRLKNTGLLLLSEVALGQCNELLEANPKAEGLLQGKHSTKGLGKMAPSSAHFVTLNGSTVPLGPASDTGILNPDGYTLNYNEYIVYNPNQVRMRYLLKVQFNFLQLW
Chain of PARP1 (P09874 whole entry): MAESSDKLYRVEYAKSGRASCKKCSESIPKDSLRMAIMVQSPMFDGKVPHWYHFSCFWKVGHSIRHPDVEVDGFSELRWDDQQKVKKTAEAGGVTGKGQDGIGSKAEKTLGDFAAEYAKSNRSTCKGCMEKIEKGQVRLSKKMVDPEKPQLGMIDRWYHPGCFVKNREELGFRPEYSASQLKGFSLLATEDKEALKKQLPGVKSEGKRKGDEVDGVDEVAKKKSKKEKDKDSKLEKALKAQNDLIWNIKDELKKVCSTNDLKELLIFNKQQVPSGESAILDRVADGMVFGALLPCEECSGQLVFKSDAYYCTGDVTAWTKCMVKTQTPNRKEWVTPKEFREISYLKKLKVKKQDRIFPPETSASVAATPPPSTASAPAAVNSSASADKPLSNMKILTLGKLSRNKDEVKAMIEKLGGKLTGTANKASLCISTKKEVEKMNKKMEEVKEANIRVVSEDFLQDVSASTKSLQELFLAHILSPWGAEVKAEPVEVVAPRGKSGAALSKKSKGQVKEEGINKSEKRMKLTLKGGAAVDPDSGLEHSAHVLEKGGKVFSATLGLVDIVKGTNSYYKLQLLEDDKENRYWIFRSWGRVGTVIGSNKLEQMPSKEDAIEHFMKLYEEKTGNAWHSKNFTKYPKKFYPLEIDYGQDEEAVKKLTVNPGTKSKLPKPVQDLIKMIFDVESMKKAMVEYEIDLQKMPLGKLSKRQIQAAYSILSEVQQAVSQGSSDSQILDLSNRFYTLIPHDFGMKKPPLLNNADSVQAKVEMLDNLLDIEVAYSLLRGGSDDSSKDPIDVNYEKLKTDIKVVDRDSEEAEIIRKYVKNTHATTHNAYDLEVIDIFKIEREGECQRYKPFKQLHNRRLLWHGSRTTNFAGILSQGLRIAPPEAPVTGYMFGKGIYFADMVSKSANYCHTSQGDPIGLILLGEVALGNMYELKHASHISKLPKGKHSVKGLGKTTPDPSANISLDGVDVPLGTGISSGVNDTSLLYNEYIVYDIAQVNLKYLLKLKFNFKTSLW

CCn1c(=O)[nH]c2cc(CN3CCN(c4ccc(C(=O)NC)nc4Cl)CC3)cc(Cl)c2c1=O [Example 63, 6-chloro-5-(4-((5-chloro-3-ethyl-2,4-dioxo-1,2,3,4-tetrahydroquinazolin-7-yl)methyl)piperazin-1-yl)-N-methylpicolinamide]
pIC50 [1]: 8.00 to 9.00
IC50 [2]: 1 to 10 nM
IC50 [3]: 100 to 1000 nM

CCn1c(=O)[nH]c2cc(CN3CCN(c4ccc(C(=O)NC)nc4C)CC3)cnc2c1=O [Example 4, 5-(4-((3-ethyl-2,4-dioxo-1,2,3,4-tetrahydropyrido[3,2-d]pyrimidin-7-yl)methyl)piperazin-1-yl)-N,6-dimethylpicolinamide]
pIC50 [1]: 7.00 to 8.00
IC50 [2]: 1 to 10 nM
IC50 [3]: > 1000 nM

CCCn1c(=O)[nH]c2cc(-c3cccc(C(=O)Nc4ccc(C(=O)NC)nc4)c3)ccc2c1=O [Example 47, 5-(3-(3-propyl-2,4-dioxo-1,2,3,4-tetrahydroquinazolin-7-yl)benzamido)-N-methylpicolinamide]
pIC50 [1]: < 6.00
IC50 [2]: 10 to 100 nM
IC50 [3]: > 1000 nM

CCn1c(=O)[nH]c2cc(CN3CCN(c4ccc(C(N)=O)nc4F)CC3)ccc2c1=O [Example 32, 5-(4-((3-ethyl-2,4-dioxo-1,2,3,4-tetrahydroquinazolin-7-yl)methyl)piperazin-1-yl)-6-fluoropicolinamide]
pIC50 [1]: 7.00 to 8.00
IC50 [2]: 1 to 10 nM
IC50 [3]: 100 to 1000 nM

CCn1c(=O)[nH]c2cc(CN3CCN(c4ccc(C(=O)NC)nc4Cl)CC3)ccc2c1=O [Example 21, 5-(4-((3-ethyl-2,4-dioxo-1,2,3,4-tetrahydroquinazolin-7-yl)methyl)piperazin-1-yl)-6-chloro-N-methylpicolinamide]
pIC50 [1]: 8.00 to 9.00
IC50 [2]: ≤ 1 nM
IC50 [3]: 10 to 100 nM

CCN1Cc2ccc(CN3CCN(c4ccc(C(=O)NC)nc4C)CC3)cc2NC1=O [Example 116]
pIC50 [1]: 7.00 to 8.00
IC50 [2]: 1 to 10 nM
IC50 [3]: > 1000 nM

CCNC(=O)c1ccc(N2CCN(Cc3ccc4c(=O)n(CC)c(=O)[nH]c4c3)CC2)c(C)n1 [Example 84, N-ethyl-5-(4-((3-ethyl-2,4-dioxo-1,2,3,4-tetrahydroquinazolin-7-yl)methyl)piperazin-1-yl)-6-methylpicolinamide]
pIC50 [1]: 7.00 to 8.00
IC50 [2]: 1 to 10 nM
IC50 [3]: > 1000 nM

CCn1c(=O)[nH]c2cc(CN3CCN(c4ccc(C(=O)NC)nc4C)CC3)c(F)cc2c1=O [Example 67, 5-(4-((3-ethyl-6-fluoro-2,4-dioxo-1,2,3,4-tetrahydroquinazolin-7-yl)methyl)piperazin-1-yl)-N,6-dimethylpicolinamide]
pIC50 [1]: 6.00 to 7.00
IC50 [2]: 10 to 100 nM
IC50 [3]: > 1000 nM

CCNC(=O)c1ccc(N2CCN(Cc3ccc4c(=O)n(CC)c(=O)[nH]c4c3)CC2)c(F)n1 [Example 33, 5-(4-((3-ethyl-2,4-dioxo-1,2,3,4-tetrahydroquinazolin-7-yl)methyl)piperazin-1-yl)-6-fluoro-N-ethylpicolinamide]
pIC50 [1]: 8.00 to 9.00
IC50 [2]: 1 to 10 nM
IC50 [3]: 100 to 1000 nM

CCn1c(=O)[nH]c2cc(CN3CCN(c4ccc(C(=O)NC5CC5)nc4C)CC3)ccc2c1=O [Example 78, N-cyclopropyl-5-(4-((3-ethyl-2,4-dioxo-1,2,3,4-tetrahydroquinazolin-7-yl)methyl)piperazin-1-yl)-6-methylpicolinamide]
pIC50 [1]: 7.00 to 8.00
IC50 [2]: 1 to 10 nM
IC50 [3]: > 1000 nM

CCn1c(=O)[nH]c2cc(CN3CCN(c4cnc(C(=O)NC)nc4)CC3)ccc2c1=O [Example 27]
pIC50 [1]: < 6.00
IC50 [2]: 1 to 10 nM
IC50 [3]: 100 to 1000 nM

CCCn1c(=O)[nH]c2cc(CN3CCN(c4ccc(C(=O)NC)nc4F)CC3)ccc2c1=O [Example 19, 5-(4-((2,4-dioxo-3-propyl-1,2,3,4-tetrahydroquinazolin-7-yl)methyl)piperazin-1-yl)-6-fluoro-N-methylpicolinamide]
pIC50 [1]: 7.00 to 8.00
IC50 [2]: 1 to 10 nM
IC50 [3]: > 1000 nM

CNC(=O)c1ccc(NC(=O)c2cccc(-c3ccc4c(=O)n(C)c(=O)[nH]c4c3)c2)cn1 [Example 40, 5-(3-(3-methyl-2,4-dioxo-1,2,3,4-tetrahydroquinazolin-7-yl)benzamido)N-methylpicolinamide]
pIC50 [1]: < 6.00
IC50 [2]: 1 to 10 nM
IC50 [3]: > 1000 nM

CCc1nc(C(=O)NC)ccc1N1CCN(Cc2ccc3c(=O)n(CC)c(=O)[nH]c3c2)CC1 [Example 31, 5-(4-((3-ethyl-2,4-dioxo-1,2,3,4-tetrahydroquinazolin-7-yl)methyl)piperazin-1-yl)-6-ethyl-N-methylpicolinamide]
pIC50 [1]: 6.00 to 7.00
IC50 [2]: ≤ 1 nM
IC50 [3]: > 1000 nM

CCn1c(=O)[nH]c2cc(CN3CCN(c4ccc(C(=O)NC)nn4)CC3)ccc2c1=O [Example 29, 6-(4-((3-ethyl-2,4-dioxo-1,2,3,4-tetrahydroquinazolin-7-yl)methyl)piperazin-1-yl)-N-methylpyridazine-3-carboxamide]
pIC50 [1]: < 6.00
IC50 [2]: 1 to 10 nM
IC50 [3]: 100 to 1000 nM

CCn1c(=O)[nH]c2cc(CN3CCN(c4ccc(C(=O)NC)nc4F)CC3)cc(F)c2c1=O [Example 25, 5-(4-((3-ethyl-5-fluoro-2,4-dioxo-1,2,3,4-tetrahydroquinazolin-7-yl)methyl)piperazin-1-yl)-6-fluoro-N-methylpicolinamide]
pIC50 [1]: 8.00 to 9.00
IC50 [2]: 1 to 10 nM
IC50 [3]: 100 to 1000 nM

CCn1c(=O)[nH]c2cc(CN3CCN(c4ccc(C(=O)NC)nc4Cl)CC3)cc(F)c2c1=O [Example 62, 6-chloro-5-(4-((3-ethyl-5-fluoro-2,4-dioxo-1,2,3,4-tetrahydroquinazolin-7-yl)methyl)piperazin-1-yl)-N-methylpicolinamide]
pIC50 [1]: 7.00 to 8.00
IC50 [2]: 1 to 10 nM
IC50 [3]: 100 to 1000 nM

CCn1c(=O)[nH]c2cc(CN3CCN(c4ccc(C(=O)NC)nc4)CC3)ccc21 [Example 16, 5-(4-((1-ethyl-2-oxo-2,3-dihydro-1H-benzo[d]imidazol-5-yl)methyl)piperazin-1-yl)-N-methylpicolinamide]
pIC50 [1]: < 6.00
IC50 [2]: > 1000 nM
IC50 [3]: > 1000 nM

CCNC(=O)c1ccc(N2CCN(Cc3cc(F)c4c(c3)NC(=O)N(CC)C4)CC2)c(Cl)n1 [Example 122, 6-chloro-N-ethyl-5-(4-((3-ethyl-5-fluoro-2-oxo-1,2,3,4-tetrahydroquinazolin-7-yl)methyl)piperazin-1-yl)picolinamide]
pIC50 [1]: 7.00 to 8.00
IC50 [2]: 1 to 10 nM

CCNC(=O)c1ccc(N2CCN(Cc3ccc4c(=O)n(C)c(=O)[nH]c4c3)CC2)c(C)n1 [Example 101, N-ethyl-6-methyl-5-(4-((3-methyl-2,4-dioxo-1,2,3,4-tetrahydroquinazolin-7-yl)methyl)piperazin-1-yl)picolinamide]
pIC50 [1]: 6.00 to 7.00

CCn1c(=O)[nH]c2cc(CN3CCN(c4ccc5c(c4)CCNC5=O)CC3)ccc2c1=O [Example 37, 3-ethyl-7-((4-(1-oxo-1,2,3,4-tetrahydroisoquinolin-6-yl)piperazin-1-yl)methyl)quinazoline-2,4(1H,3H)-dione]
pIC50 [1]: < 6.00

CCn1c(=O)[nH]c2nc(CN3CCN(c4ccc(C(=O)NC)nc4C)CC3)ccc2c1=O [Example 74, 5-(4-((3-ethyl-2,4-dioxo-1,2,3,4-tetrahydropyrido[2,3-d]pyrimidin-7-yl)methyl)piperazin-1-yl)-N,6-dimethylpicolinamide]
pIC50 [1]: < 6.00

CCn1c(=O)[nH]c2cc(CN3CCN(c4ccc5[nH]ncc5c4)CC3)ccc2c1=O [Example 112, 7-((4-(1H-indazol-5-yl)piperazin-1-yl)methyl)-3-ethylquinazoline-2,4(1H,3H)-dione]
pIC50 [1]: < 6.00
